In brackets after ≈: the same amount, converted by molar mass.

Data set [1] concerns A375 human melanoma cell line. In words: sulforhodamine B anti-proliferative assay, A375. The data set is classed as cell-based. Conditions: A375, 48 hours incubation, SRB; for IC50: Homo sapiens, A-375, read-out: Anti-proliferative activity, IC50 (concentration required to inhibit cell growth by 50%). The method, then:
(§1) Human colorectal carcinoma HCT-116 and HT-29 cells are routinely maintained in McCoy's 5A medium (Gibco) whereas human melanoma A375 cells and human pancreatic adenocarcinoma PANC-1 cells are cultured in DMEM (Gibco) supplemented with 10% fetal bovine serum (Gibco), 1% penicillin-streptomycin (Gibco) in a 5% CO2, 95% air humidified atmosphere at 37° C.
(§2) For the sulforhodamine B assay, different carcinoma cells were seeded in 96-well plates at a density of 5×10^3 cells/well and incubated with serial dilutions of ent-kaurene diterpenoids FA, FA1, FA2, FA3, FA4 or PA for 48 hours. After incubation, cells were treated with 50% trichloroacetic acid at 4° C. for at least 30 minutes for protein fixing. Cells were then washed with water 4 times prior to a complete dry down of the culture plate. To each well, 100 μL of 0.4% sulforhodamine B in 1% acetic acid was added. After 30-minute incubation at room temperature, cells were washed with 1% acetic acid 4 times. Fixed proteins were fully solubilized with 10 mM Tris base solution (pH 10, 200 μL/well). Spectrophotometric absorbance of samples were measured at 515 nm using a microplate reader (Bio-rad).

In data set [2] the test system is PANC-1 human pancreatic ductal adenocarcinoma cell line. Briefly: sulforhodamine B anti-proliferative assay, PANC-1. The data set is classed as cell-based. Conditions: PANC-1, 48 hours incubation, SRB; for IC50: Homo sapiens, read-out: Anti-proliferative activity, IC50 (concentration required to inhibit cell growth by 50%). The method, then: as §1, §2
Data set [3] deals with HT-29 human colorectal carcinoma cell line. In words: sulforhodamine B anti-proliferative assay, HT-29. The data set is classed as cell-based. Particulars: HT-29, 48 hours incubation, SRB; for IC50: Homo sapiens, read-out: Anti-proliferative activity, IC50 (concentration required to inhibit cell growth by 50%). The method, then:
as §1, §2

Data set [4] has as its system HCT-116 human colorectal carcinoma cell line. Briefly: sulforhodamine B anti-proliferative assay, HCT-116. The data set is classed as cell-based. Particulars: HCT-116, 48 hours incubation, SRB; for IC50: Homo sapiens, read-out: Anti-proliferative activity, IC50 (concentration required to inhibit cell growth by 50%). The procedure: as §1, §2
Data set [5] concerns HCT-116 colon carcinoma cell-bearing nude mice. Briefly: HCT-116 xenograft experiment in nude mice. In kind it is in vivo, male BALB/c nude mice. Particulars: for growth of xenograft tumor in terms of volume: 20 mg/kg i.p. every other day for 21 days, compared to paclitaxel 10 mg/kg (FIG. 4, FIG. 6). The procedure:
For the xenograft experiment, HCT-116 cells were implanted subcutaneously in the right and left flanks (1×10^6 cells in 100 μL) of male BALB/c nude mice (n=10/group), which were SPF class and aged 6-7 weeks old weighing between 20 g-25 g. Tumor size was monitored by measuring two perpendicular diameters with a caliper every other day. When tumors were formed to approximately 100 mm^3 seven days after the injection of HCT-116 cells, FA3 or PA was administered (20 mg/kg, every other day by intraperitoneal injection for a total of 21 days). To the paclitaxel group, injection of paclitaxel was given at 10 mg/kg to the nude mice whilst the vehicle group merely received the 2.5% EtOH and Cremphor EL solution, which was the dissolving solution for FA3, PA and paclitaxel. Tumor volume and body weight of mice were recorded at indicated time points during the course of experiment. Tumor volume was calculated as volume=length×width^2×0.5. Weight of tumor xenograft was assessed at the time of sacrificed.
The data are presented as mean±standard error of the mean (S.E.M.). Statistical differences among the experimental groups were tested by one-way analysis of variance (ANOVA). P-value<0.05 was considered as statistically significant.

For another data set, the system named is HCT-116 cells. In words: flow cytometric annexin V-FITC/propidium iodide apoptosis assay. In kind it is cell-based, human. Conditions: HCT-116, 0.25, 0.5 and 1.0 μg/mL for 48 hours, concentration-dependent (FIG. 2). The procedure:
From the flow cytometric analysis, the staining percentage of annexin V/FITC and propidium iodide (PI) is detected as percentage at Q1: necrosis (upper left quarter); Q2: late apoptosis (upper right quarter); Q3: live (lower left quarter); Q4: early apoptosis (lower right quarter).
For the flow cytometric assay, HCT-116 cells were seeded in 6-well plates at a density of 1×10^5 cells/well and incubated with serial dilutions of FA3 for 48 hours. Cells were collected by centrifugation, re-suspended in 500 μL of binding buffer containing 5 μL of propidium iodide and 5 μL of annexin V-FITC, and incubated for 15 minutes in dark. Signals of the cell suspension were then analyzed using a flow cytometer (BD) for apoptotic events.
In general terms: Flow cytometry measures light scatter and fluorescence of single cells or particles in a stream.

Turning to `C=C1C(=O)[C@@]23C(O)C[C@@H]4C(C)(C)CCCC4(COC(C)=O)[C@@H]2[C@@H](O)C[C@@H]1[C@H]3O` (stereo partly shown) [FA, flexicaulin A, reference compound], the “Anti-proliferative activity, IC50 (concentration required to inhibit cell growth by 50%)” value in data set [1] is 1.624 µg/mL; in data set [2] it was 1.024 µg/mL; in data set [3], 0.9732 µg/mL; in data set [4], 0.7215 µg/mL.
`C=C1C(=O)[C@@]23[C@H](O)C[C@@H]4C(C)(C)CCC[C@@]4(COC(C)=O)[C@@H]2C(=O)C[C@@H]1[C@H]3O` [FA3]: the IC50 turned out to be 0.668 µg/mL (≈ 1.71 µM) in data set [1], 0.413 µg/mL (≈ 1.06 µM) in data set [2], 0.424 µg/mL (≈ 1.09 µM) in data set [3] and 0.274 µg/mL (≈ 0.701 µM) in data set [4]. Further, in data set [5], the “growth of xenograft tumor in terms of volume” value is on record as “more sufficiently restrained”. The “growth of xenograft tumor in terms of weight” value in data set [5] (20 mg/kg i.p. every other day, day 21, compared to paclitaxel 10 mg/kg (FIG. 3)) was “more sufficiently restrained”. Moreover, the “change of body weight” value in data set [5] (21-day administration, tumor-bearing nude mice (FIG. 5)) is recorded as “does not lead to a significant loss of body weight”. For the same compound, in the data set with HCT-116 cells, the degree of apoptosis result was “Substantial increase in the degree of apoptosis”.
Turning to `C=C1C(=O)[C@@]23[C@@H]4OC(C)(C)O[C@@H]2C[C@@H]2C(C)(C)CCC[C@@]2(COC(C)=O)[C@@H]3C(=O)C[C@@H]14` [FA2], the IC50 in data set [1], in data set [2], in data set [3] and in data set [4] was over 2 µg/mL in each case.
On to `C=C1C(=O)[C@@]23[C@@H]4OC(C)(C)O[C@@H]2C[C@@H]2C(C)(C)CCC[C@]25CO[C@](O)(C[C@@H]14)[C@@H]53` [FA4], for which the IC50 in data set [1] was over 2 µg/mL; in data set [2], over 2 µg/mL; in data set [3], over 2 µg/mL; in data set [4] it was 0.98 µg/mL (≈ 2.52 µM).
As for `C=C1C(=O)[C@]23[C@H](O)C[C@@H]4C(C)(C)CCC[C@]45CO[C@](O)(C[C@@H]1[C@H]2O)[C@@H]53` [PA, pseudoirroratin A, reference compound], the “Anti-proliferative activity, IC50 (concentration required to inhibit cell growth by 50%)” value in data set [1] came to 0.8737 µg/mL; in data set [2], 0.4396 µg/mL; in data set [3] it was 0.4194 µg/mL; in data set [4], 0.2702 µg/mL. Further, the “growth of xenograft tumor in terms of volume” value in data set [5] was “not as efficient as paclitaxel”.

The record behind these values is US10493056B2, “Method of use of diterpenoid derivatives as anticancer agents” (Hong Kong Baptist University, priority 2016, dated 2019).
